Results as given in patent publication US6699851B2, “Cytotoxic compounds and their use” (Ardenia Investments, Ltd., priority 2000, dated 2004).
Several values for one entry are separate records, joined by “and”; a condition that tells them apart may be missing. Equal values may be shown once.

Assays:
[1] = system: Ehrlich ascites carcinoma (EAC); assay: Effect of pretreatment with compositions on antitumour action of DXR in mice with EAC; assay type: in vivo; settings: DXR alone (positive control) 3.5 mg/kg i.v. day 1, 3, 5, 7, day 8
Protocol: Randombred albino mice of the ICR line, female, from own rearing were used in the study. The room for animal housing is provided with filtered air at 15 changes per hour, temperature of 19-21° C., relative humidity of 50-60% and regulated light day of 12 hours with change of light and darkness at 6 h a.m. and 6 h p.m. The mice were kept in transparent polycarbonate cages with floor area of 600 cm^2 containing softwood sawdust bedding. The animals had free access to bottles with domestic quality drinking tap water and to standard feeding for growing animals ad libidum. The mice age 2-2.5 months, weighing 20-23 g were randomly distributed to the control and test groups, standardised by mean weights. The control and test groups included 15 and 12 animals respectively. Specific earmarks identified the mice from each group. […]
The mice were killed by cervical dislocation one day later after the final treatment with the test substances on day 8. Ascites fluids were removed, collected, their volumes were recorded, and abdominal cavities were washed by saline 6-7 times and both fluids were pooled. Volumes of tumour cell pellet after centrifugation at 1000 r.p.m. for 10 min were also recorded. Number of viable tumour cells was counted by haemocytometer. Means and standard errors for each of animal groups were calculated. […] Influence of the composition on EAC growth inhibition was evaluated by: [formula] […]

[2] = system: HeLa cell line of human cervical carcinoma; assay: Assay of cytotoxicity: HeLa cell growth inhibition (viable cell count, trypan blue exclusion); assay type: cell-based; settings: compound alone; for number of living cells: three days of cultivation
Protocol: The assay of cytotoxicity of the inventive preparations was carried out on the well-known human cervical carcinoma cell line HeLa. HeLa cells were cultivated in full cultivation medium, containing 80% of Eagle Minimal Essential Medium with glutamine (Sigma), 20% of normal bovine serum, penicillin 100 IE/ml and streptomycin 100 μg/ml. HeLa cell at concentration of 10^5 cells/ml were seed in 24-well plates for adhesive cell lines (Sarstedt) in volume of 2 ml per well. HeLa cells were cultivated in CO2-incubator at temperature 37° C. in humidified atmosphere, consisting of 95% air and 5% CO2. On the next day, the experimental cultures were supplemented with solutions of the inventive preparations in normal bovine serum (NBS) in a volume of 20 μl, in order to obtain the necessary concentration for studying these in cultures. Control cultures were supplemented with normal bovine serum. After that HeLa cells were cultivated two days again at the same conditions. On the third day, HeLa cells from each cultures were harvested separately using versen. The number of viable cells was counted using tryphan blue exclusion test and a hemocytometer.
For evaluation of the cytotoxic action of these assayed preparations on HeLa cells the means value and standard errors of means of viable cell numbers were calculated. The cell growth inhibition (%) was calculated as: [formula]
The extent of cell growth inhibition caused by the assayed preparations was used for evaluation of their cytotoxicity.

[3] = first series of concentrations (5.00-6.59×10^−10 mol/l final)
[4] = second series of concentrations (10.00-13.17×10^−10 mol/l final)

SMILES | EAC growth inhibition [1] | number of tumour cells (EAC cells in abdominal cavity) [1] | cell growth inhibition [2, 3] | number of living cells [2, 3] | cell growth inhibition [2, 4] | number of living cells [2, 4]
COc1cccc2c1C(=O)c1c(O)c3c(c(O)c1C2=O)C[C@@](O)(C(=O)CO)C[C@@H]3O[C@H]1C[C@H](N)[C@H](O)[C@H](C)O1 [DXR, Doxorubicin] | 42.8% and 45.1% and 47.3% and 39.4% and 44.5% | 525.2±74.5 ×10^6 and 436.3±51.8 ×10^6 and 614.4±60.2 ×10^6 and 542.6±50.1 ×10^6 and 534.8±39.3 ×10^6 |  |  |  | 
CCC=CCC=CCC=CCC=CCC=CCC=CCCC(=O)NCCOP(=O)(O)O [C6, N-docosahexaenoyl-O-phospho-2-aminoethanol] |  |  | 6.6% | 424.2±18.41 ×10^3 | 7.4% | 420.8±27.79 ×10^3
CC1=C(/C=C/C(C)=C/C=C/C(C)=C/C(=O)N[C@@H](Cc2ccc(OP(=O)(O)O)cc2)C(=O)O)C(C)(C)CCC1 (stereo in doubt) [C11, N-(all-trans-retinoyl)-O-phospho-L-tyrosine] |  |  | 17.1% | 376.7±24.52 ×10^3 | 5.2% | 430.8±16.37 ×10^3
